In publication PMC9496258, “Trace Immunosensing of Multiple Neonicotinoid Insecticides by a Novel Broad-Specific Antibody Obtained from a Rational Screening Strategy” (Biosensors, 2022):
≈ marks a conversion by molar mass, not a printed value.

How the values were obtained:
mAb 6F11 = assay: icELISA with mAb 6F11 (hybridoma supernatant), coating antigen imidacloprid-OVA; assay type: binding, mouse; conditions: for CR: mAb 6F11, cross-reactivity relative to imidacloprid; for IC50: mAb 6F11, hybridoma supernatant, icELISA
Experimental: (§1) Procedures for the immunization, cell fusion and clone selection were similar to those described in our previous publications, and indirect non-competitive and competitive ELISAs were sequentially used for hybridoma screening. The generated mAb was purified by protein G from the ascitic fluid and then stored at −20 °C for further analysis. A mouse antibody isotyping kit was used to determine the isotypes of the mAbs.
(§2) Checkerboard titration was carried out by icELISAs with serial dilutions of the antibody and coating antigen (imidacloprid-OVA). […] The specificity and sensitivity were determined by icELISAs. Briefly, the mixture of standards with different concentrations and equal volume of antibody was added into the reaction wells of pre-coated plates. Standard curves were fitted into a four-parameter logarithmic equation: Y = A2 + [(A1 − A2)/1 + (X/X0)^p], and the half-maximal inhibitory concentration (IC50, defined as the assay sensitivity, was used to calculate cross-reactivity rate(CR).
(§3) Moreover, sensitivity (IC50) and CR to eight neonicotinoids were assessed by icELISAs.

mAb 4B1 = assay: icELISA with mAb 4B1 (hybridoma supernatant), coating antigen imidacloprid-OVA; assay type: binding, mouse; conditions: for CR: mAb 4B1, cross-reactivity relative to imidacloprid; for IC50: mAb 4B1, hybridoma supernatant, icELISA
Experimental: as §1, §2, §3

6F11-mAb = assay: icELISA with purified 6F11-mAb; assay type: binding, mouse; conditions: for CR / IC50: 6F11-mAb; for CR: cross-reactivity relative to imidacloprid; for IC50: imidacloprid-OVA 10 µg/mL; for recognition by the antibody (6F11): in words
Experimental: as §1, §2
(§4) Under the optimal working concentrations of 10 µg/mL for imidacloprid-OVA, icELISAs with high sensitivity to neonicotinoid pesticides and metabolites were established.

6F11-rAb [1] = assay: icELISA with full-length recombinant 6F11-rAb; assay type: binding, mouse; conditions: for CR: cross-reactivity relative to imidacloprid; for IC50: imidacloprid-OVA 10 µg/mL
Experimental: Transient production in the HEK 293F suspension cells was performed as described. Briefly, cells were prepared with viable cell density around 1.5 × 10^6 cells/mL and viability above 95 % in 180 mL serum-free culture medium in 500 mL Nunc Erlenmeyer flasks and incubated at 37 °C in 5% CO2 atmosphere and shaken at 130 rpm in an orbital shaker for 2 h. A total of 90 μg of the plasmids (VH:VL = 2:3) mixed with transfection reagent were pre-warmed for 15 min and then transiently transfected into HEK 293F. After 5 days of incubation, the supernatant was collected and purified by protein G. The size of the purified full-length rAb was identified by SDS-PAGE.
as §2, §4

6F11-rAb [2] = assay: GNIS (gold lateral-flow immunosensing strip) assay based on 6F11-rAb; assay type: binding, mouse; conditions: for limit detection of T-line disappearance (visual detection limit): normal visual detection; for IC50: with a strip reader
From the text: The preparation method for the conjugate of rAb-gold nanoparticles was based on a previous report. A colloid gold lateral-flow immunosensing strip consisted of three pads (glass fiber membrane, NC membrane and absorption membrane) using a one-sided adhesive polyvinyl chloride sheet as a support. The prepared imidaclothiz-OVA conjugate and goat anti-mouse IgG antibody were immobilized onto the NC membrane as the test line (T line) and control line (C line), respectively. For analysis, standard solutions at different concentrations were added to the 96-well microtiter plate, and then the strip was inserted into the well. After 15 min, the signal was observed using a portable reader (Helmen, Suzhou, China). Standard curves were gained by plotting the signal ratio of the T line to the C line (T/C) against the analyte concentration, and they were also fitted into the four-parameter logarithmic equation.
The 6F11-rAb was used to establish a rapid and reliable GNIS assay, and the limit detection of T-line disappearance was 5 ng/mL for imidacloprid, clothianidin and imidaclothiz and over 100 ng/mL for thiacloprid, acetamiprid and nitenpyram, judged by normal visual detection (Figure 5). […] Therefore, imidacloprid, clothianidin and imidaclothiz, with better sensitivity, were further determined by spiking experiment.

mAb 1A5 = assay: icELISA with mAb 1A5 (hybridoma supernatant), coating antigen imidacloprid-OVA; assay type: binding, mouse; conditions: for CR: mAb 1A5, cross-reactivity relative to imidacloprid; for IC50: mAb 1A5, hybridoma supernatant, icELISA
Experimental: as §1, §2, §3

mAb 5C3 = assay: icELISA with mAb 5C3 (hybridoma supernatant), coating antigen imidacloprid-OVA; assay type: binding, mouse; conditions: for CR: mAb 5C3, cross-reactivity relative to imidacloprid; for IC50: mAb 5C3, hybridoma supernatant, icELISA
Experimental: as §1, §2, §3

[3] = test system: positive hybridoma clones; assay: Dual-target icELISA hybridoma screening; assay type: binding, mouse; conditions: analyte at 1 µg/mL, nine clones
Experimental: as §1
After cell fusion and the primary screening by non-competitive ELISAs, 37 positive wells of hybridomas giving the absorbance values higher than 0.5 were picked out and filled with fresh culture medium. On the next day, they were quickly rechecked by icELISAs to qualitatively test the ability of recognizing both imidacloprid and acetamiprid. […] Therefore, the top four broad-specific clones were selected and screened with imidacloprid and acetamiprid until stable hybridoma lines were obtained. Then the culture supernatants were collected for characterization of the four kinds of broad-specific mAbs.

anti-imidaclothiz mAb = test system: anti-imidaclothiz mAb; parameters: method as in PMID 21299253; conditions: anti-imidaclothiz mAb-based ELISA; cited from earlier work
[4] = test system: anti-imidacloprid monoclonal antibody; parameters: method as in PMID 31862564; conditions: anti-imidacloprid mAb, lateral-flow immunoassay; cited from earlier work

SMILES	CR (mAb 6F11) [%]	IC50 (mAb 6F11) [ng/mL]	CR (mAb 4B1) [%]	IC50 (mAb 4B1) [ng/mL]	CR (6F11-mAb) [%]	IC50 (6F11-mAb) [ng/mL]	CR (6F11-rAb [1]) [%]	IC50 (6F11-rAb [1]) [ng/mL]	limit detection of T-line disappearance (visual detection limit) (6F11-rAb [2])	CR (mAb 1A5) [%]	IC50 (mAb 1A5) [ng/mL]	CR (mAb 5C3) [%]	IC50 (mAb 5C3) [ng/mL]	IC50 (6F11-rAb [2]) [ng/mL]	other results
N#C/N=C1\SCCN1Cc1ccc(Cl)nc1 [Thiacloprid, thiacloprid]	21.2	2.78	10.2	28.37	20.6	1.30	12.5	2.89	over 100 ng/mL	2.7	42.91	1.8	13.39	–	–
O=[N+]([O-])NC1=NCCN1Cc1ccc(Cl)nc1 [Imidacloprid, imidacloprid]	100.0	0.59	100.0	2.90	100.0	0.27	100.0	0.36	5 ng/mL	100.0	1.14	100.0	0.24	0.9 (≈ 3.52 nM)	inhibition rate [3]: > 50%; cross-reactivity (anti-imidaclothiz mAb): 91.7%
CN1COCN(Cc2cnc(Cl)s2)/C1=N\[N+](=O)[O-] [Thiamethoxam, thiamethoxam]	<0.1	>1000	<0.1	>1000	<0.1	>1000	<0.1	>1000	–	<0.1	>1000	<0.1	>1000	–	CR (mAb 6F11; listed as thiamethoxam): without obvious CR; CR (mAb 4B1; listed as thiamethoxam): no CR; recognition by the antibody (6F11) (6F11-mAb): cannot recognize; CR (mAb 1A5; listed as thiamethoxam): without obvious CR; CR (mAb 5C3; listed as thiamethoxam): without obvious CR
C/C(=N\C#N)N(C)Cc1ccc(Cl)nc1 [Acetamiprid, acetamiprid]	9.5	6.24	3.1	92.77	4.5	5.92	4.0	9.04	over 100 ng/mL	2.6	43.34	0.4	58.52	–	cross-reactivity [4]: 1.1%
CN/C(=N/CC1CCOC1)N[N+](=O)[O-] (centres unmarked) [Dinotefuran, dinotefuran]	<0.1	>1000	<0.1	>1000	<0.1	>1000	<0.1	>1000	–	<0.1	>1000	<0.1	>1000	–	CR (mAb 6F11; listed as dinotefuran): without obvious CR; CR (mAb 4B1; listed as dinotefuran): no CR; CR (mAb 1A5; listed as dinotefuran): without obvious CR; CR (mAb 5C3; listed as dinotefuran): without obvious CR
CCN(Cc1ccc(Cl)nc1)/C(=C/[N+](=O)[O-])NC [Nitenpyram, nitenpyram]	8.2	7.16	<0.1	>1000	4.8	5.57	5.1	7.07	over 100 ng/mL	3.7	31.19	0.8	30.66	–	CR (mAb 4B1; listed as nitenpyram): no CR
O=[N+]([O-])/C=C1\NCCN1Cc1ccc(Cl)nc1 [6-Cl-PMNI]	–	–	–	–	132.9	0.20	100.6	0.36	–	–	–	–	–	–	–
O=[N+]([O-])/N=C1\NCOCN1Cc1cnc(Cl)s1 [N-desmethyl thiamethoxam]	–	–	–	–	124.8	0.21	67.8	0.53	–	–	–	–	–	–	recognition by the antibody (6F11) (6F11-mAb): very high affinity
O=[N+]([O-])/N=C1\NCCN1Cc1cnc(Cl)s1 [Imidaclothiz, imidaclothiz]	122.9	0.48	7.1	41.09	115.1	0.23	119.8	0.30	5 ng/mL	126.7	0.90	8.6	2.79	0.7 (≈ 2.67 nM)	–
CN/C(=N\[N+](=O)[O-])NCc1cnc(Cl)s1 [Clothianidin, clothianidin]	41.3	1.43	4.9	59.41	58.3	0.46	41.7	0.86	5 ng/mL	63.3	1.80	20.2	1.19	0.5 (≈ 2 nM)	cross-reactivity [4]: 4.1%
